Experimental data as given in patent US20260116845A1, “LIPIDS AND COMPOSITIONS THEREOF” (Kernal Biologics, Inc., priority 2023, published 2026).

Key:
Type in all cases: cell-based
MC38.K Cell Line = test: Transfection of MC38.K Cell Line with FLuc mRNA LNPs (ONE-Glo EX luciferase signal); conditions: 200 ng Fluc mRNA-LNP, 24 hours; for Total Luciferin Signal (RLU) In Vitro - MC38.K: Table 4
Method: (§1) mRNA encapsulated lipid nanoparticles (mRNA LNPs) were formulated using microfluidic mixing with a PNI Ignite instrument. Briefly, lipids (ionizable: structural: helper: PEG) were dissolved in ethanol and mixed with and aqueous solution of mRNA. These mRNA-loaded dispersions were then neutralized via a buffer exchange with a pre-determined buffer overnight. Afterwards, formed LNPs were concentrated with Amicon filter centrifugation, filtered, concentration of mRNA determined through a ribogreen assay, and frozen at −80° C. until use.
(§2) Cell lines were grown to confluence in T75 flasks using complete media of DMEM-F12 for AML12 and DMEM for both B16F10 and MC38.K. Cells were plated in a white 96 flat-well plate (AML12=20,000 cells/well, B16F10 and MC38.K=5,000 cells/well) with their respected media. Lipid nanoparticles were first diluted to 50 μg/ml using Opti-MEM and pre-incubated with mouse serum for 30 minutes to give an LNP concentration of 8 μg/ml. Cell media was replaced with Opti-MEM and LNPs were added to cells (200 ng of mRNA-LNP), placed back in the incubator, and allowed to transfect for 24 hours. Afterwards, 100 μl of Promega's ONE-Glo™ EX Luciferase Assay System or Promega's CellTiter-Glo® Luminescent Cell Viability Assay was added and mixed in their respective wells, followed by recording luminescence signals on a Thermo Scientific Varioskan LUX multimode microplate reader. The results are shown in FIG. 1, FIG. 2, FIG. 3, FIG. 4, FIG. 5, FIG. 6, FIG. 10, FIG. 11, and FIG. 21.

B16F10 Cell Line = test: Transfection of B16F10 Cell Line with FLuc mRNA LNPs (ONE-Glo EX luciferase signal); conditions: 200 ng Fluc mRNA-LNP, 24 hours
Method: as §1, §2

AML12 Cell Line = test: Transfection of AML12 Cell Line with FLuc mRNA LNPs (ONE-Glo EX luciferase signal); conditions: 200 ng Fluc mRNA-LNP, 24 hours
Method: as §1, §2

Compound | Total Luciferin Signal (RLU) In Vitro - MC38.K (MC38.K Cell Line) [RLU] | Total Luciferin Signal (RLU) In Vitro - B16F10 (B16F10 Cell Line; Table 4) [RLU] | Total Luciferin Signal (RLU) In Vitro - AML12 (AML12 Cell Line; Table 4) [RLU] | Total Luciferin Signal (RLU) In Vitro-MC38 (MC38.K Cell Line; Table 5) [RLU] | Total Luciferin Signal (RLU) In Vitro - B16F10 (B16F10 Cell Line; Table 5) [RLU] | Total Luciferin Signal (RLU) In Vitro - AML12 (AML12 Cell Line; Table 5) [RLU]
CCCCCCCCCOC(=O)CCCCCCCN(CCO)CCCCCCCC(=O)OCC(CCCCCCCC)CCCCCCCCF (stereo not drawn) [Compound 80, 10-fluoro-2-octyldecyl 8-((2-hydroxyethyl)(8-(nonyloxy)-8-oxooctyl)amino)octanoate] | 1.95E+07 | 2.97E+06 | 3.01E+06 | – | – | –
CCCCCCCCC(CCCCCCCC)C(=O)OCCCCCCCN(CCCCCOC(=O)CCCCCCCCC(C)C)CCOC(=O)CCCN(C)C [Compound 13] | 7.83E+05 | 2.12E+06 | 1.44E+06 | – | – | –
CCCCCCCCC(CCCCCCCC)OC(=O)CCCCCCCN(CCCCCCCC(=O)OCCCCCCCCF)CCOC(=O)CCCN(C)C [Compound 22] | 2.65E+06 | 5.04E+05 | 1.24E+05 | – | – | –
CCCCCCCCC(CCCCCCCCF)OC(=O)CCCCCCCN(CCCCCCC(C)C(=O)OCCCCCCCCC(C)C)CC(C)CO (stereo not drawn) [Compound 75, 9-methyldecyl 8-((8-((1-fluoroheptadecan-9-yl)oxy)-8-oxooctyl)(3-hydroxy-2-methylpropyl)amino)-2-methyloctanoate] | 4.51E+04 | 2.15E+04 | 1.59E+04 | – | – | –
CCCCCCCCCOC(=O)CCCCCCCN(CCO)CCCCCCCC(=O)OC(CCCCCCCF)CCCCCCCF [Compound 84, 1,15-difluoropentadecan-8-yl 8-((2-hydroxyethyl)(8-(nonyloxy)-8-oxooctyl)amino)octanoate] | 5.52E+05 | 8.32E+04 | 5.18E+04 | – | – | –
CCCCCCCCCOC(=O)CCCCCCCN(CCO)CCCCCCCC(=O)OC(CCCCCCCC)CCCCCCCCCl (stereo not drawn) [Compound 83, 1-chloroheptadecan-9-yl 8-((2-hydroxyethyl)(8-(nonyloxy)-8-oxooctyl)amino)octanoate] | 2.14E+06 | 4.41E+05 | 1.85E+05 | – | – | –
CCCCCCCCCOC(=O)CCCCCCCN(CCCCO)CCCCCCCC(=O)OCC(CCCCCCCC)CCCCCCCCF (stereo not drawn) [Compound 77, 10-fluoro-2-octyldecyl 8-((4-hydroxybutyl)(8-(nonyloxy)-8-oxooctyl)amino)octanoate] | 3.24E+07 | 7.80E+06 | 5.38E+06 | – | – | –
CCCCCCCCC(CCCCCCCC)C(=O)OCCCCCCCN(CCCCCC(=O)OCCCCCCCCC(C)C)CCOC(=O)CCCN(C)C [Compound 7] | 1.35E+06 | 1.11E+06 | 1.48E+06 | – | – | –
CCCCCCCCCOC(=O)CCCCCCCN(CCCCO)CCCCCCCCOC(=O)C(CCCC)CCCCCCF (stereo not drawn) [Compound 81, 8-((4-hydroxybutyl)(8-(nonyloxy)-8-oxooctyl)amino)octyl 2-butyl-8-fluorooctanoate] | 2.47E+06 | 5.85E+04 | 4.91E+04 | – | – | –
CCCCCCCCC(CCCCCCCC)OC(=O)CCCCCCCN(CCO)CCCCCCCC(=O)OCCCCCCCCF [Compound 21] | 1.16E+06 | 1.03E+05 | 4.09E+05 | – | – | –
CCCCCCCCC(CCCCCCCC)OC(=O)CCCCCN(CCO)CCCCCC(=O)OC(CCCCCCCC)CCCCCCCC [Compound 51] | 1.70E+06 | 1.28E+06 | 1.01E+06 | – | – | –
CCCCCCCCC(CCCCCCCC)OC(=O)CCCCCCCN(CCCCCOC(=O)CCCCCCCCC(C)C)CCOC(=O)CCCN(C)C [Compound 15] | 6.94E+05 | 1.97E+06 | 1.53E+06 | – | – | –
CCCCCCCCCOC(=O)C(C)CCCCCCN(CCO)CCCCCCCCOC(=O)C(CCCC)CCCCCCF (stereo not drawn) [Compound 74, 8-((2-hydroxyethyl)(7-methyl-8-(nonyloxy)-8-oxooctyl)amino)octyl 2-butyl-8-fluorooctanoate] | 1.94E+05 | 6.66E+04 | 2.80E+04 | – | – | –
CCCCCCCC/C=C\CCCCCCC1CN(CCO)CC(CCCCCC(=O)OC(CCCCCCCC)CCCCCCC(C)C)O1 (stereo not drawn) [Compound 98, 2-methylheptadecan-9-yl (Z)-6-(6-(hexadec-7-en-1-yl)-4-(2-hydroxyethyl)morpholin-2-yl)hexanoate] | – | – | – | 7.95E+04 | 1.27E+05 | 4.38E+04
CCCCC(CCCCCCF)C(=O)OCCCCCCCCN(CCCCO)CCCCCCC(C)C(=O)OCCCCCCCCC(C)C (stereo not drawn) [Compound 88, 8-((4-hydroxybutyl)(7-methyl-8-((9-methyldecyl)oxy)-8-oxooctyl)amino)octyl 2-butyl-8-fluorooctanoate] | 1.24E+07 | 9.41E+05 | 3.65E+05 | – | – | –
CCCCCCCCCOC(=O)CCCCCN(CCO)CCCCCC(=O)OCCCCCCCCC [Compound 50] | 1.85E+04 | 1.30E+04 | 1.54E+04 | – | – | –
CCCCC(CCCCCCF)C(=O)OCCCCCCCCN(CCO)CCCCCCC(C)C(=O)OCCCCCCCCC(C)C (stereo not drawn) [Compound 79, 8-((2-hydroxyethyl)(7-methyl-8-((9-methyldecyl)oxy)-8-oxooctyl)amino)octyl 2-butyl-8-fluorooctanoate] | 1.65E+07 | 1.84E+06 | 7.26E+05 | – | – | –
CCCCCCCCC(CCCCCCCCF)C(=O)OCCCCCCCN(CCO)CCCCCCCOC(=O)C(C)CCCCCCCC(C)C (stereo not drawn) [Compound 87, 7-((7-((10-fluoro-2-octyldecanoyl)oxy)heptyl)(2-hydroxyethyl)amino)heptyl 2,10-dimethylundecanoate] | 6.61E+06 | 3.16E+06 | 1.52E+06 | – | – | –
CCCCCCCCC(CCCCCCCC)OC(=O)CCCCCCCN(CCCCCCCC(=O)OCCCCCCCCC(C)C)CCOC(=O)CCCN(C)CCO [Compound 5] | 4.09E+06 | 1.79E+06 | 2.04E+05 | – | – | –
CCCCCCC(CCCCCCCCF)COC(=O)CCCCCCCN(CCCCO)CCCCCCC(C)C(=O)OCCCCCCCCC(C)C (stereo not drawn) [Compound 86, 9-methyldecyl 8-((8-((10-fluoro-2-hexyldecyl)oxy)-8-oxooctyl)(4-hydroxybutyl)amino)-2-methyloctanoate] | 3.80E+07 | 7.58E+06 | 3.99E+06 | – | – | –
CCCCCCCCCCCOC(=O)CCCCCN(CCO)CCCCCC(=O)OCCCCCCCCCCC [Compound 49] | 2.99E+04 | 9.79E+03 | 1.75E+04 | – | – | –
CCCCCCCCCOC(=O)C(C)CCCCCCN(CCCCO)CCCCCCCC(=O)OCC(CCCCCC)CCCCCCCCF (stereo not drawn) [Compound 85, nonyl 8-((8-((10-fluoro-2-hexyldecyl)oxy)-8-oxooctyl)(4-hydroxybutyl)amino)-2-methyloctanoate] | 6.32E+07 | 1.03E+07 | 7.47E+06 | – | – | –
CCCCCCCCC(CCCCCCCC)C(=O)OCCCCCCCN(CCO)CCCCCCCOC(=O)C(CCCCCCCC)CCCCCCCC [Compound 46] | 4.59E+06 | 1.48E+06 | 1.30E+06 | – | – | –
CC(C)CCCCCCCCC(=O)OCCCCCCCN(CCO)CCCCCCCOC(=O)CCCCCCCCC(C)C [Compound 48] | 2.17E+06 | 4.45E+06 | 3.31E+06 | – | – | –
CCCCCCCCCOC(=O)CCCCCCCN(CCO)CCCCCCCCOC(=O)C(CCCC)CCCCCCF (stereo not drawn) [Compound 82, 8-((2-hydroxyethyl)(8-(nonyloxy)-8-oxooctyl)amino)octyl 2-butyl-8-fluorooctanoate] | 6.18E+04 | 1.70E+04 | 1.48E+04 | – | – | –
